ChEMBL document CHEMBL4725292 (J Med Chem, 2020)
pIC50: −log10 of the molar value.

What was measured:
Blood [1] = assay: Inhibition of LPS-induced MCP1 production in human whole blood preincubated for 30 mins followed by LPS addition and measured after overnight incubation by mesoscale assay; format: functional, tissue-based
Blood [2] = assay: Inhibition of LPS-induced IL6 production in human whole blood preincubated for 30 mins followed by LPS addition and measured after overnight incubation by mesoscale assay; format: functional, tissue-based
THP-1 = assay: Antiproliferative activity against human THP-1 cells after 72 hrs by cell titer glo assay; format: functional, cell-based; details: THP-1, 72 h
MV4-11 = assay: Antiproliferative activity against human MV4-11 cells after 72 hrs by cell titer glo assay; format: functional, cell-based; details: MV4-11, 72 h
HL-60 = assay: Antiproliferative activity against human HL-60 cells after 72 hrs by cell titer glo assay; format: functional, cell-based; details: HL-60, 72 h
Blood [3] = assay: Inhibition of LPS-induced TNFalpha production in human whole blood preincubated for 30 mins followed by LPS addition and measured after overnight incubation by mesoscale assay; format: functional, tissue-based
[4] = target: Bromodomain-containing protein 4 (Homo sapiens, UniProt O60885, Y97A); assay: Displacement of Alexa Fluor 647 labelled ligand from His6-tagged BRD4 BD2 (1 to 477 residues)/BD1 Y97A mutant (unknown origin) after 30 mins by TR-FRET assay
[5] = Lipophilicity, logD of the compound at pH 7.4 by chromatographic method; format: physicochemical; details: buffer
[6] = Permeability of the compound in pH 7.4 phosphate buffer measured after 3 hrs by artificial membrane permeability assay based HPLC analysis; format: ADME; details: for Papp at 3 h: PAMPA, pH 7.4, read-out: permeability
[7] = tested on: Bromodomain-containing protein 4 (Homo sapiens), O60885 [UNDEFINED MUTATION]; assay: Selectivity index, […] for His6-thr-tagged BRD4 BD1 (1 to 477 residues)/BD2 Y390A mutant (unknown origin) to pIC50 for His6-tagged BRD4 BD2 (1 to 477 residues)/BD1 Y97A mutant (unknown origin)
[8] = target: Bromodomain-containing protein 4 (Homo sapiens, UniProt O60885, Y390A); assay: Displacement of Alexa Fluor 647 labelled ligand from His6-thr-tagged BRD4 BD1 (1 to 477 residues)/BD2 Y390A mutant (unknown origin) after 30 mins by TR-FRET assay
[9] = target: T1, ATPase family AAA domain-containing protein 2 (Homo sapiens, UniProt Q6PL18); assay: Inhibition of ATAD2 (unknown origin) by TR-FRET assay
T1 sequence (Q6PL18 whole entry): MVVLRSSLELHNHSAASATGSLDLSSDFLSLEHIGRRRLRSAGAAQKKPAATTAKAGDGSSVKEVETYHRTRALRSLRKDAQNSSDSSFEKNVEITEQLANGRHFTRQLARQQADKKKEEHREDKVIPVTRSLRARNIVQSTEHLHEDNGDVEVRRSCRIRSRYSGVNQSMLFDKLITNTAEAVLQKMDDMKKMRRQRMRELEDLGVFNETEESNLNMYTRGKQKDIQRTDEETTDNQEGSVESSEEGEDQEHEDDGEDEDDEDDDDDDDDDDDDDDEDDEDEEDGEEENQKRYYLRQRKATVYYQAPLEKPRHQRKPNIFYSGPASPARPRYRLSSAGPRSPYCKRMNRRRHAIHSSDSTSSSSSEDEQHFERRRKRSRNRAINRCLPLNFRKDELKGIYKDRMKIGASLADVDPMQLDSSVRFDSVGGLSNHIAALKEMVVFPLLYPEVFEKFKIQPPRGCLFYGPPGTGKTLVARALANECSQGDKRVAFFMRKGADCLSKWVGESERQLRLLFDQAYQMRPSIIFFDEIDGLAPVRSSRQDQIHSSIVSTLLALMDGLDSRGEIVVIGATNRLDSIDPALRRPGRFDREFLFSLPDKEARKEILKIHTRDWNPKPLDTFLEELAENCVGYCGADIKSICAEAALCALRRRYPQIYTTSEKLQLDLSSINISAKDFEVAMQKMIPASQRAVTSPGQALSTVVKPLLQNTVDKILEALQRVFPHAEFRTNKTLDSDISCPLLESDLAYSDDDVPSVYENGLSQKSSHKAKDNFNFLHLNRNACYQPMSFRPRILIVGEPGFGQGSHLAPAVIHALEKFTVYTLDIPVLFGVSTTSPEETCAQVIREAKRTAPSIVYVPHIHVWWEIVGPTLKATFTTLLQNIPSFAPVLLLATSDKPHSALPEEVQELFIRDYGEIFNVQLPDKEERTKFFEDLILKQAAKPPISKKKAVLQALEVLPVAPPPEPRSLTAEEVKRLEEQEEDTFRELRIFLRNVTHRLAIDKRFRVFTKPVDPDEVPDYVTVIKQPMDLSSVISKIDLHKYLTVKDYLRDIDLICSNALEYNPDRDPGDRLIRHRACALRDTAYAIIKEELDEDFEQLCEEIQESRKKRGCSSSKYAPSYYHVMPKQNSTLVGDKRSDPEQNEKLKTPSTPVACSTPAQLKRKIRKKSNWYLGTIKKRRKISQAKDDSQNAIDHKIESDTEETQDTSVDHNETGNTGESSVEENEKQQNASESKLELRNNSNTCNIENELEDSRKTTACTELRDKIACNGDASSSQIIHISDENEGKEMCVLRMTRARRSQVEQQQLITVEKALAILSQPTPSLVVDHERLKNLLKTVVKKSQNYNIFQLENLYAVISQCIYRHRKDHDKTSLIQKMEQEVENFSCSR

[10] = Selectivity index, […] for His6-thr-tagged BRD4 BD1 (1 to 477 residues)/BD2 Y390A mutant (unknown origin) to pIC50 for LPS-induced MCP1 production in PBMC (unknown origin)
[11] = Inhibition of LPS-induced MCP1 production in PBMC (unknown origin); format: functional, tissue-based

| Compound | pIC50 (Blood [1]) | pIC50 (Blood [2]) | pIC50 (THP-1) | pIC50 (MV4-11) | pIC50 (HL-60) | pIC50 (Blood [3]) | pIC50 [4] | chromatographic logD [5] | Papp at 3 h [6] | Selectivity Index [7] | pIC50 [8] | pIC50 [9] | Selectivity Index [10] | pIC50 [11] | permeability ([6]; artificial membrane, pH 7.4, 3 h, 3 h) |
| --- | --- | --- | --- | --- | --- | --- | --- | --- | --- | --- | --- | --- | --- | --- | --- |
| COc1cc2c(cc1-c1c(C)noc1C)ncc1[nH]c(=O)n([C@H](C)c3ccccn3)c12 | 6.52 | 5.99 | 6.87 | 6.90 | 6.71 | 6.42 | – | – | – | – | – | – | – | – | – |
| Cc1cc2c(-c3ccco3)ccc(N[C@@H]3CCNC[C@H]3C(=O)NC3CCCCC3)c2[nH]c1=O (racemic) | – | – | – | – | – | – | 4.80 | 3.66 | < 1 ×10⁻⁶ cm/s | 50 | 6.50 | – | – | – | – |
| Cc1cc2ccnc(N[C@@H]3CCNC[C@H]3C(=O)NC3CCCCC3)c2[nH]c1=O (racemic) | – | – | – | – | – | – | < 4.30 | 2.03 | < 0.3 ×10⁻⁶ cm/s | > 60 | 6.10 | < 4.40 | – | – | – |
| Cc1cc2c(-c3ccco3)cnc(N[C@@H]3CCNC[C@H]3C(=O)NC3CCCCC3)c2[nH]c1=O | – | – | – | – | – | – | 4.90 | 3.12 | – | – | 7.70 | – | 10 | 6.70 | 1.9 ×10⁻⁶ cm/s |
